# Experiments:
# oval-leafed pondweed = assay: Test Example 1: herbicidal activity, application before weed generation under submerged conditions (Table 16, symbol C); format: in vivo, oval-leafed pondweed (Monochoria vaginalis)
# In short: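 Submerged Wagner pots (alluvial soil, 4 cm water) sown with weed seeds and planted with 2.5-leaf rice seedlings; emulsifiable concentrate diluted in water applied to water surface on sowing day. Held in greenhouse at 25-30 °C; injury scored 0-5 by herbicidal rate after three weeks.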
# Japanese bulrush = assay: Test Example 2: herbicidal activity, application during weed generation under submerged conditions (Table 17, symbol B); format: in vivo, Japanese bulrush (Schoenoplectus juncoides); conditions: application during weed generation, submerged conditions
# In short: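 Steps: fill Wagner pots with alluvial soil; add water to give 4 cm depth; sow the species mixed; grow under glass at 25–30° C.; at 1–2 leaves apply water-diluted emulsion formulation to the water surface at a fixed herbicide amount; score after 3 weeks.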
# southern crabgrass = assay: Test Example 4: herbicidal effect by soil treatment (Table 19, symbol F); format: in vivo, southern crabgrass (Digitaria ciliaris); conditions: for herbicidal effect rating, F: southern crabgrass: 320 g/ha
# In short: (§1)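 Applied as a water-diluted emulsion, the compound was sprayed onto soil covering newly sown seeds. Evaluation came three weeks after application, in a greenhouse held at 25° C. to 30° C.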
# green foxtail = assay: Test Example 4: herbicidal effect by soil treatment (Table 19, symbol G); format: in vivo, green foxtail (Setaria viridis); conditions: for herbicidal effect rating, G: green foxtail: 320 g/ha
# In short: as §1
# barnyard grass = assay: Test Example 4: herbicidal effect by soil treatment (Table 19, symbol H); format: in vivo, barnyard grass (Echinochloa crus-galli); conditions: for herbicidal effect rating, H: barnyard grass: 320 g/ha
# In short: as §1
# wild oat = assay: Test Example 4: herbicidal effect by soil treatment (Table 19, symbol I); format: in vivo, wild oat (Avena fatua); conditions: for herbicidal effect rating, I: wild oat: 320 g/ha
# In short: as §1
# blackgrass = assay: Test Example 4: herbicidal effect by soil treatment (Table 19, symbol J); format: in vivo, blackgrass (Alopecurus myosuroides); conditions: for herbicidal effect rating, J: blackgrass: 320 g/ha
# In short: as §1
# velvetleaf [1] = assay: Test Example 4: herbicidal effect by soil treatment (Table 19, symbol M); format: in vivo, velvetleaf (Abutilon theophrasti); conditions: for herbicidal effect rating, M: velvetleaf: 320 g/ha
# In short: as §1
# lambsquarters [2] = assay: Test Example 4: herbicidal effect by soil treatment (Table 19, symbol O); format: in vivo, lambsquarters (Chenopodium album); conditions: for herbicidal effect rating, O: lambsquarters: 320 g/ha
# In short: as §1
# chickweed = assay: Test Example 4: herbicidal effect by soil treatment (Table 19, symbol P); format: in vivo, common chickweed (Stellaria media); conditions: for herbicidal effect rating, P: chickweed: 320 g/ha
# In short: as §1
# persian speedwell = assay: Test Example 4: herbicidal effect by soil treatment (Table 19, symbol R); format: in vivo, Persian speedwell (Veronica persica); conditions: for herbicidal effect rating, R: persian speedwell: 320 g/ha
# In short: as §1
# Italian ryegrass = assay: Test Example 5: herbicidal effect by foliage application, plastic box (Table 20, symbol K); format: in vivo, Italian ryegrass (Lolium multiflorum); conditions: foliage application, 3 weeks after application
# In short: (§2)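 Sow seeds spot-wise in sterilized diluvial soil; cover with ~1.5 cm soil. Grow 14 days in greenhouse, 25° C. to 30° C. Spray foliage with emulsion diluted to predetermined amount. Rate effect after 3 weeks.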
# windgrass = assay: Test Example 5: herbicidal effect by foliage application, plastic box (Table 20, symbol L); format: in vivo, windgrass (Apera spica-venti); conditions: foliage application, 3 weeks after application
# In short: as §2
# velvetleaf [3] = assay: Test Example 5: herbicidal effect by foliage application, plastic box (Table 20, symbol M); format: in vivo, velvetleaf (Abutilon theophrasti); conditions: foliage application, 3 weeks after application
# In short: as §2
# lambsquarters [4] = assay: Test Example 5: herbicidal effect by foliage application, plastic box (Table 20, symbol O); format: in vivo, lambsquarters (Chenopodium album); conditions: foliage application, 3 weeks after application
# In short: as §2
SMILES,Herbicidal effect on C: oval-leafed pondweed (grade 0-5) (oval-leafed pondweed; 320 g/ha applied herbicide),"herbicidal effect rating, B: Japanese bulrush (Japanese bulrush; AAH 320 g/ha)","F: southern crabgrass, herbicidal effect rating (southern crabgrass; AAH 320 g/ha)","G: green foxtail, herbicidal effect rating (green foxtail; AAH 320 g/ha)","H: barnyard grass, herbicidal effect rating (barnyard grass; AAH 320 g/ha)","I: wild oat, herbicidal effect rating (wild oat; AAH 320 g/ha)","J: blackgrass, herbicidal effect rating (blackgrass; AAH 320 g/ha)","M: velvetleaf, herbicidal effect rating (velvetleaf [1]; AAH 320 g/ha)","O: lambsquarters, herbicidal effect rating (lambsquarters [2]; AAH 320 g/ha)","P: chickweed, herbicidal effect rating (chickweed; AAH 320 g/ha)","R: persian speedwell, herbicidal effect rating (persian speedwell; AAH 320 g/ha)",effect on Italian ryegrass (K) (Italian ryegrass; 320 g/ha),effect on windgrass (L) (windgrass; 320 g/ha),effect on velvetleaf (M) (velvetleaf [3]; 320 g/ha),effect on lambsquarters (O) (lambsquarters [4]; 320 g/ha),"herbicidal effect rating, F: southern crabgrass (southern crabgrass)","herbicidal effect rating, G: green foxtail (green foxtail)","herbicidal effect rating, H: barnyard grass (barnyard grass)","herbicidal effect rating, I: wild oat (wild oat)","herbicidal effect rating, J: blackgrass (blackgrass)",also measured
C=C(C)COc1ccc(-c2sc3ccccc3c2-c2c(O)c(C)nn(C)c2=O)cc1 [1-208],5 (Herbicidal rate of 90% or more (almost completely withered)),3 (Herbicidal rate of 40% or more and less than 70%),0 (Herbicidal rate of 5% or less (almost no effect)),0 (Herbicidal rate of 5% or less (almost no effect)),0 (Herbicidal rate of 5% or less (almost no effect)),0 (Herbicidal rate of 5% or less (almost no effect)),0 (Herbicidal rate of 5% or less (almost no effect)),0 (Herbicidal rate of 5% or less (almost no effect)),0 (Herbicidal rate of 5% or less (almost no effect)),3 (Herbicidal rate of 40% or more and less than 70%),5 (Herbicidal rate of 90% or more (almost completely withered)),5 (Herbicidal rate of 90% or more (almost completely withered)),4 (Herbicidal rate of 70% or more and less than 90%),5 (Herbicidal rate of 90% or more (almost completely withered)),5 (Herbicidal rate of 90% or more (almost completely withered)),–,–,–,–,–,–
C=C(Br)COc1ccc(-c2sc3ccccc3c2-c2c(O)c(C)nn(C)c2=O)cc1 [1-215],4 (Herbicidal rate of 70% or more and less than 90%),3 (Herbicidal rate of 40% or more and less than 70%),0 (Herbicidal rate of 5% or less (almost no effect)),0 (Herbicidal rate of 5% or less (almost no effect)),0 (Herbicidal rate of 5% or less (almost no effect)),0 (Herbicidal rate of 5% or less (almost no effect)),0 (Herbicidal rate of 5% or less (almost no effect)),0 (Herbicidal rate of 5% or less (almost no effect)),3 (Herbicidal rate of 40% or more and less than 70%),1 (Herbicidal rate of 5% or more and less than 20%),3 (Herbicidal rate of 40% or more and less than 70%),4 (Herbicidal rate of 70% or more and less than 90%),5 (Herbicidal rate of 90% or more (almost completely withered)),5 (Herbicidal rate of 90% or more (almost completely withered)),5 (Herbicidal rate of 90% or more (almost completely withered)),–,–,–,–,–,–
Cc1nn(C)c(=O)c(-c2c(-c3ccc(OCCC4OCCO4)cc3)sc3ccccc23)c1O [1-223],–,–,–,–,–,–,–,–,–,–,–,–,–,–,–,–,–,–,–,–,"Herbicidal effect on C: oval-leafed pondweed (grade 0-5) (oval-leafed pondweed; 246 g/ha applied herbicide): 4 (Herbicidal rate of 70% or more and less than 90%); herbicidal effect rating, B: Japanese bulrush (Japanese bulrush; AAH 246 g/ha): 3 (Herbicidal rate of 40% or more and less than 70%); F: southern crabgrass, herbicidal effect rating (southern crabgrass; AAH 246 g/ha): 0 (Herbicidal rate of 5% or less (almost no effect)); G: green foxtail, herbicidal effect rating (green foxtail; AAH 246 g/ha): 2 (Herbicidal rate of 20% or more and less than 40%); H: barnyard grass, herbicidal effect rating (barnyard grass; AAH 246 g/ha): 3 (Herbicidal rate of 40% or more and less than 70%); I: wild oat, herbicidal effect rating (wild oat; AAH 246 g/ha): 0 (Herbicidal rate of 5% or less (almost no effect)); J: blackgrass, herbicidal effect rating (blackgrass; AAH 246 g/ha): 0 (Herbicidal rate of 5% or less (almost no effect)); M: velvetleaf, herbicidal effect rating (velvetleaf [1]; AAH 246 g/ha): 0 (Herbicidal rate of 5% or less (almost no effect)); O: lambsquarters, herbicidal effect rating (lambsquarters [2]; AAH 246 g/ha): 3 (Herbicidal rate of 40% or more and less than 70%); P: chickweed, herbicidal effect rating (chickweed; AAH 246 g/ha): 0 (Herbicidal rate of 5% or less (almost no effect)); R: persian speedwell, herbicidal effect rating (persian speedwell; AAH 246 g/ha): 0 (Herbicidal rate of 5% or less (almost no effect)); effect on Italian ryegrass (K) (Italian ryegrass; 246 g/ha): 3 (Herbicidal rate of 40% or more and less than 70%); effect on windgrass (L) (windgrass; 246 g/ha): 4 (Herbicidal rate of 70% or more and less than 90%); effect on velvetleaf (M) (velvetleaf [3]; 246 g/ha): 5 (Herbicidal rate of 90% or more (almost completely withered)); effect on lambsquarters (O) (lambsquarters [4]; 246 g/ha): 5 (Herbicidal rate of 90% or more (almost completely withered))"
CSCCSCc1ccc(-c2sc3ccccc3c2-c2c(O)c(C)nn(C)c2=O)cc1 [1-253],0 (Herbicidal rate of 5% or less (almost no effect)),0 (Herbicidal rate of 5% or less (almost no effect)),0 (Herbicidal rate of 5% or less (almost no effect)),0 (Herbicidal rate of 5% or less (almost no effect)),0 (Herbicidal rate of 5% or less (almost no effect)),0 (Herbicidal rate of 5% or less (almost no effect)),0 (Herbicidal rate of 5% or less (almost no effect)),0 (Herbicidal rate of 5% or less (almost no effect)),3 (Herbicidal rate of 40% or more and less than 70%),3 (Herbicidal rate of 40% or more and less than 70%),5 (Herbicidal rate of 90% or more (almost completely withered)),4 (Herbicidal rate of 70% or more and less than 90%),0 (Herbicidal rate of 5% or less (almost no effect)),5 (Herbicidal rate of 90% or more (almost completely withered)),5 (Herbicidal rate of 90% or more (almost completely withered)),–,–,–,–,–,–
Cc1ccc(-c2sc3ccc(F)cc3c2-c2c(O)c(C)nn(C)c2=O)cc1 [2-012],0 (Herbicidal rate of 5% or less (almost no effect)),3 (Herbicidal rate of 40% or more and less than 70%),–,–,–,–,–,–,–,–,–,4 (Herbicidal rate of 70% or more and less than 90%),4 (Herbicidal rate of 70% or more and less than 90%),5 (Herbicidal rate of 90% or more (almost completely withered)),4 (Herbicidal rate of 70% or more and less than 90%),5 (Herbicidal rate of 90% or more (almost completely withered)),5 (Herbicidal rate of 90% or more (almost completely withered)),5 (Herbicidal rate of 90% or more (almost completely withered)),0 (Herbicidal rate of 5% or less (almost no effect)),0 (Herbicidal rate of 5% or less (almost no effect)),"herbicidal effect rating, M: velvetleaf (velvetleaf [1]): 4 (Herbicidal rate of 70% or more and less than 90%); herbicidal effect rating, O: lambsquarters (lambsquarters [2]): 5 (Herbicidal rate of 90% or more (almost completely withered)); herbicidal effect rating, P: chickweed (chickweed): 4 (Herbicidal rate of 70% or more and less than 90%); herbicidal effect rating, R: persian speedwell (persian speedwell): 5 (Herbicidal rate of 90% or more (almost completely withered))"
CCCC(=O)Oc1c(C)nn(C)c(=O)c1-c1c(-c2ccc(C)cc2)sc2ccc(F)cc12 [2-013],2 (Herbicidal rate of 20% or more and less than 40%),2 (Herbicidal rate of 20% or more and less than 40%),–,–,–,–,–,–,–,–,–,4 (Herbicidal rate of 70% or more and less than 90%),3 (Herbicidal rate of 40% or more and less than 70%),5 (Herbicidal rate of 90% or more (almost completely withered)),4 (Herbicidal rate of 70% or more and less than 90%),5 (Herbicidal rate of 90% or more (almost completely withered)),5 (Herbicidal rate of 90% or more (almost completely withered)),4 (Herbicidal rate of 70% or more and less than 90%),0 (Herbicidal rate of 5% or less (almost no effect)),3 (Herbicidal rate of 40% or more and less than 70%),"herbicidal effect rating, M: velvetleaf (velvetleaf [1]): 3 (Herbicidal rate of 40% or more and less than 70%); herbicidal effect rating, O: lambsquarters (lambsquarters [2]): 5 (Herbicidal rate of 90% or more (almost completely withered)); herbicidal effect rating, P: chickweed (chickweed): 3 (Herbicidal rate of 40% or more and less than 70%); herbicidal effect rating, R: persian speedwell (persian speedwell): 4 (Herbicidal rate of 70% or more and less than 90%)"

# From patent US20230085307A1, “PYRIDAZINONE COMPOUND AND HERBICIDE” (NISSAN CHEMICAL CORPORATION, priority 2019, published 2023)
